One compound from PMC6609544 (British Journal of Pharmacology, 2019) can be followed below.

Changes are numbered by the printed parent chain.

For one test, the target named is T1, Kv12.1(H462Y) (Homo sapiens, UniProt Q96L42, H462Y).
T1 sequence (Q96L42 1-1107 H462Y): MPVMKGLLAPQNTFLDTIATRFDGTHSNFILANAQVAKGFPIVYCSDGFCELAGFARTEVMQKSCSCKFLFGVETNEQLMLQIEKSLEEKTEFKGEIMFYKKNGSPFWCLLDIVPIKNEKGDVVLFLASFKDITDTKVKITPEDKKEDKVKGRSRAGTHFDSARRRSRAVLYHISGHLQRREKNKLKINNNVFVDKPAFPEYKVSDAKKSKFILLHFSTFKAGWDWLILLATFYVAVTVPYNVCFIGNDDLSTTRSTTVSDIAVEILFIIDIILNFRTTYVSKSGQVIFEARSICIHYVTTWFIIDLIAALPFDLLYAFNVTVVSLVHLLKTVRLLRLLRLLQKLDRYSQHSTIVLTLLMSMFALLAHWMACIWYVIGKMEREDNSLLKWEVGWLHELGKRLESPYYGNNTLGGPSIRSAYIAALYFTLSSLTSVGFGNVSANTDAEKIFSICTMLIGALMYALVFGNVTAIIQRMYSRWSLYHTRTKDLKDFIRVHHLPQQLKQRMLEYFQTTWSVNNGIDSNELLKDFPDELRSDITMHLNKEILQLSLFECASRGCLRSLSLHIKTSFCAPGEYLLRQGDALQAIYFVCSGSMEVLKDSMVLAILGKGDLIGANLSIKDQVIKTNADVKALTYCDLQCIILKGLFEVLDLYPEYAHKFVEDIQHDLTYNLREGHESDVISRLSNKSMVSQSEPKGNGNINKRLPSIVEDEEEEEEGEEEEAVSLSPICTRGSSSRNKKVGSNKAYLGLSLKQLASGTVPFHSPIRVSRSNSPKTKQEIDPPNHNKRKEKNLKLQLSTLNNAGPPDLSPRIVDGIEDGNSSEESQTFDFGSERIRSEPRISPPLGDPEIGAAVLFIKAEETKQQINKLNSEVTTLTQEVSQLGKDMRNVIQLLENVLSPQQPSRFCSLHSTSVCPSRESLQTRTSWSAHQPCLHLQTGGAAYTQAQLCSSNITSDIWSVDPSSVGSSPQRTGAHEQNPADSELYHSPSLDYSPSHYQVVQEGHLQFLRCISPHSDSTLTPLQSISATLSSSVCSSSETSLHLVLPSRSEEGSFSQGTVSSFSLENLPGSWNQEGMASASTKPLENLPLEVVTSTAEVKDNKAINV
Kind of test: whole-cell patch clamp in transfected CHO cells. Type of test: cell-based. Background: The patch-clamp technique gives a direct electrical read-out from membranes.

Another test deals with T2, Kv12.1 (Elk1) (Homo sapiens, UniProt Q96L42).
T2 sequence (Q96L42 1-1107): T1 sequence (Q96L42 1-1107 H462Y) with Y462H
Kind of test: whole-cell patch clamp in transfected CHO cells. Type of test: cell-based.

As usually defined, the IC50 is the concentration at which inhibition is half-maximal. A low value points to greater potency in that assay. With `C=C[C@H]1C[N@@]2CC[C@H]1C[C@H]2[C@H](O)c1ccnc2ccc(OC)cc12` [quinine], the 50% inhibitory concentration (IC50) against Kv12.1(H462Y) came to 56 µM; on Kv12.1 (Elk1), 970 µM.
